From patent publication US9261498B2, “Biomarker for sensitivity to mTOR inhibitor therapy in kidney cancer” (The Regents of the University of California, priority 2005, dated 2016)
“Also recorded” adds a separate entry of the source.

What was measured:
VEGF = VEGF immunohistochemistry on xenograft tumors; type: in vivo, SCID mice; settings: CCI-779 treated vs vehicle
Experimental: FIGS. 2A-2C. Effects of VHL knockdown on angiogenesis. (a) Microvessel density was quantified by CD-31 immunolabeling (arrows) in the xenograft tumors, and difference between CCI-779 treated (+) and vehicle (−) treated mice quantified (n=6 in each group). P<0.0033 for microvessel density counts in VHL shRNA compared to vector only (see blue bars). (b) Similar number of cells were plated and maintained in 10% serum rich media, in the presence (+) or absence (−) of 10 nM CCI-779. Thirty-six hours later, conditioned media was analyzed by anti-VEGF ELISA and cell extracts prepared for protein quantification. VEGF values were normalized to total cellular protein. Error bars equal one standard deviation (n=3). (c) Immunohistochemistry for VEGF protein was performed on paraffin embedded tumor xenografts from vehicle and CCI-779 treated mice.
Xenograft tumor samples were fixed in 10% buffered formalin and embedded in paraffin. […] Microvessel density was quantified by as described previously (Weidner, N. et al. J Natl Cancer Inst 84, 1875-87 (1992)). Briefly, microvessel density was determined by light microscopy in areas of the xenograft tumor containing highest numbers of capillaries and small venules (microvessels) per area (i.e. neovascular “hotspots”) by scanning the tumor sections at low power (40× and 100×). […]

GLUT-1, CA-IX and VEGF = assay: Expression of HIF target genes GLUT-1, CA-IX and VEGF in VHL knockdown cells; type: cell-based, human; settings: 1 and 10 nM CCI-779
Experimental: (a) SN12C-CSCG and SN12C-VHLshRNA cell were treated with vehicle, 1 nM or 10 nM of CCI-779 and lysed 24 hours later. Lysates were subjected to immunoblotting for HIF-1α, HIF-2α, GLUT-1, CA-IX, p-eIF4G, p-S6 Ribosomal protein. Equal protein loading was verified using anti-β-actin antibody. (b) HIF-1α expression was probed by immunoblotting in SN12C-MSCV-5′TOP-HIF-1α cDNA (left panel) and SN12C-MSCV-HIF-1α cDNA (tight panel) post 24 hours of vehicle, 1 nM or 10 nM of CCI-779.
Cells and xenograft tumors were lysed in ECB lysis buffer (see, e.g. Kondo et al., Cancer Cell 1, 237-46 (2002)) or high-detergent buffer (2% SDS), (see, e.g. Chen et al., Nat Med 10, 33-9 (2004)), respectively, supplemented with complete protease and phosphatase inhibitor cocktails (Calbiochem). […] Bound antibody was detected using enhanced chemiluminescence (ECL, Amersham). For VEGF ELISA quantification, cells were plated in 6 well plates (1×10^5 per well). […] Thirty-six hours later, VEGF ELISA (R&D Systems) was performed according to the manufacturer's instructions, using a Fisher Plate reader. […]
Cells and xenograft tumors were lysed in ECB lysis buffer or high-detergent buffer (2% SDS), respectively, supplemented with complete protease and phosphatase inhibitor cocktails (Calbiochem). […] Bound antibody was detected using enhanced chemiluminescence (ECL, Amersham). […]

CO[C@H]1C[C@@H]2CC[C@@H](C)[C@@](O)(O2)C(=O)C(=O)N2CCCC[C@H]2C(=O)O[C@H]([C@H](C)C[C@@H]2CC[C@@H](OC(=O)C(C)(CO)CO)[C@H](OC)C2)CC(=O)[C@H](C)/C=C(\C)[C@@H](O)[C@@H](OC)C(=O)[C@H](C)C[C@H](C)/C=C/C=C/C=C/1C [CCI-779]
VEGF protein expression in VHL knockdown xenografts (VEGF): reversed; also recorded: reduced
expression of GLUT-1, CA-IX and VEGF (GLUT-1, CA-IX and VEGF): similarly reduced; also recorded: decrease in the expression
